Target: T1, human muscarinic M3 receptor (Homo sapiens, UniProt P20309)
T1 construct: expressed in transfected cells; host or cells: CHO (CHO-K1) cells
Assay: hM3 competition binding assay (3H-NMS, CHO cell membranes)
Conditions: CHO cell membranes expressing human M3; 3H-NMS at 5×KD, 24 hr at RT; IC50 corrected by Cheng-Prussoff
Description: Binding Affinity Assessment at the Human Recombinant M3 Muscarinic Receptor
Cell Pellets from CHO (Chinese Hamster Ovary) cells recombinantly expressing the human muscarinic M3 receptor were homogenised in 20 mM HEPES (pH7.4) and centrifuged at 48000×g for 20 min at 4° C. The pellet was re-suspended in buffer and the homogenisation and centrifugation steps repeated. The resulting pellet was re-suspended in 1 ml buffer per 1 ml original packed cell volume and the homogenisation step repeated. Protein estimation was carried out on the suspension and 1 ml aliquots of ˜1 mg/ml frozen at −80° C.
hM3 Competition Binding Assay Protocol
Membranes (5 µg/well) were incubated with ^3H-NMS (at a concentration 5×KD) plus/minus test compound for 24 hr at RT (room temperature) in a 1 ml polystyrene 96-well deep well block. The final assay volume was 200 µl, comprising of: 20 µl plus/minus test compound; 20 µl ^3H-NMS (Perkin Elmer NEN 636) and 160 µl membrane solution. Total Binding was defined with 0.1% DMSO; Non-Specific Binding was defined with 1 µM Atropine. Assay buffer was 20 mM Hepes (pH 7.4).
Once all assay components were added, plates were covered and incubated at room temperature for 24 hrs with shaking. The assay was terminated by rapidly filtering through GF/B Unifilter plates pre-soaked with 0.5% polyethylenimine, using a Packard filtermate harvester, the filter plate was then washed with 3×1 ml 4° C. assay buffer. The filter plates were dried at 45° C. for 1 hour. The bottoms of the filter plates were sealed and 50 µl/well of Microscint ‘0’ added, the top of the plates were sealed with a Topseal. Following 90 mins, the plates were read on an NXT Topcount (1 minute read time per well).
The resulting data was expressed as a percentage of the specific binding (Specific binding=Total binding−Non-Specific Binding). % specific binding versus test compound concentration was plotted to determine an IC50 from a sigmoid curve using an in-house data analysis programme. IC50 values corrected to Ki values by applying the Cheng-Prussoff equation: […]
where IC50 is the concentration of unlabelled drug which inhibits by 50% the specific radioligand binding. [L] is the free radioligand concentrations and KD and Ki are the equilibrium dissociation constants of the radioligand and unlabelled drug respectively.

T1 sequence (P20309 whole entry): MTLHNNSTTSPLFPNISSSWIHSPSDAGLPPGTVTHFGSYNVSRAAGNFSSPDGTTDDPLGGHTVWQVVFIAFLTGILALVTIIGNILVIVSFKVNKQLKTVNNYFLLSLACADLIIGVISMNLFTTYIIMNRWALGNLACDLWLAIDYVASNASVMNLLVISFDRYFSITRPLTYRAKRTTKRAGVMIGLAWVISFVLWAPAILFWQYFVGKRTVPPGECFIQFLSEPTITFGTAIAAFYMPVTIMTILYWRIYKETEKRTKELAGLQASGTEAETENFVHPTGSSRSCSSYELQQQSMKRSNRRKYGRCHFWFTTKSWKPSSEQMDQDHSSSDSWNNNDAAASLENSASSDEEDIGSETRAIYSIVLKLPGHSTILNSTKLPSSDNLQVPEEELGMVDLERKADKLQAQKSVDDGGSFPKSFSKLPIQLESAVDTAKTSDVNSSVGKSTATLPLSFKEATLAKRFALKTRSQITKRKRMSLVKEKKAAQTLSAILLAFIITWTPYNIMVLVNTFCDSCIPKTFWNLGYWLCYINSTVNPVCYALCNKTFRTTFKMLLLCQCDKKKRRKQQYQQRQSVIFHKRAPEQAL

Ki [nM]	SMILES
0.755	CN(CCCCCCCCCN1CCC(OC(=O)Nc2ccccc2-c2ccccc2)CC1)Cc1cc(Cl)ccc1O [Example 46, Biphenyl-2-yl-carbamic acid 1-{9-[(5-chloro-2-hydroxy-benzyl)-methyl-amino]-nonyl}-piperidin-4-yl ester]
0.529	CN(CCCCCCCCCN1CCC(OC(=O)Nc2ccccc2-c2ccccc2)CC1)Cc1cc(F)ccc1O [Example 47, Biphenyl-2-yl-carbamic acid 1-{9-[(5-fluoro-2-hydroxy-benzyl)-methyl-amino]-nonyl}-piperidin-4-yl ester]
0.182	CN(CCCCCCCCCN1CCC(OC(=O)Nc2ccccc2-c2ccccc2)CC1)Cc1cccc(O)c1Cl [Example 48, Biphenyl-2-yl-carbamic acid 1-{9-[(2-chloro-3-hydroxy-benzyl)-methyl-amino]-nonyl}-piperidin-4-yl ester]
0.285	CN(CCCCCCCCCN1CCC(OC(=O)Nc2ccccc2-c2ccccc2)CC1)Cc1cc(F)cc(Cl)c1O [Example 49, Biphenyl-2-yl-carbamic acid 1-{9-[(3-chloro-5-fluoro-2-hydroxy-benzyl)-methyl-amino]-nonyl}-piperidin-4-yl ester]
0.22	CN(CCCCCCCCCN1CCC(OC(=O)Nc2ccccc2-c2ccccc2)CC1)Cc1cc(Cl)c(O)c(Cl)c1 [Example 50, Biphenyl-2-yl-carbamic acid 1-{9-[(3,5-dichloro-4-hydroxy-benzyl)-methyl-amino]-nonyl}-piperidin-4-yl ester]
0.231	CN(CCCCCCCCCN1CCC(OC(=O)Nc2ccccc2-c2ccccc2)CC1)Cc1cccc(O)c1F [Example 51, Biphenyl-2-yl-carbamic acid 1-{9-[(2-fluoro-3-hydroxy-benzyl)-methyl-amino]-nonyl}-piperidin-4-yl ester]

The next lines start with the compound.

SMILES	Ki [nM]
O=C(Nc1ccccc1-c1ccccc1)OC1CCN(CCCCCCCCCN(Cc2cccc(O)c2Cl)Cc2cccc(O)c2Cl)CC1 [Example 39, Biphenyl-2-yl-carbamic acid 1-{9-[bis-(2-chloro-3-hydroxy-benzyl)-amino]-nonyl}-piperidin-4-yl ester]	1.13
CN(CCCCCCCCCN1CCC(OC(=O)Nc2ccccc2-c2ccccc2)CC1)Cc1cccc(F)c1O [Example 40, Biphenyl-2-yl-carbamic acid 1-{9-[(3-fluoro-2-hydroxy-benzyl)-methyl-amino]-nonyl}-piperidin-4-yl ester]	0.638
CN(CCCCCCCCCN1CCC(OC(=O)Nc2ccccc2-c2ccccc2)CC1)Cc1cc(Cl)c(Cl)cc1O [Example 41, Biphenyl-2-yl-carbamic acid 1-{9-[(4,5-dichloro-2-hydroxy-benzyl)-methyl-amino]-nonyl}-piperidin-4-yl ester]	1.3
CN(CCCCCCCCCN1CCC(OC(=O)Nc2ccccc2-c2ccccc2)CC1)Cc1ccc(F)c(O)c1 [Example 42, Biphenyl-2-yl-carbamic acid 1-{9-[(4-fluoro-3-hydroxy-benzyl)-methyl-amino]-nonyl}-piperidin-4-yl ester]	0.233
CN(CCCCCCCCCN1CCC(OC(=O)Nc2ccccc2-c2ccccc2)CC1)Cc1cc(F)c(Cl)cc1O [Example 43, Biphenyl-2-yl-carbamic acid 1-{9-[(4-chloro-5-fluoro-2-hydroxy-benzyl)-methyl-amino]-nonyl}-piperidin-4-yl ester]	0.295
CN(CCCCCCCCCN1CCC(OC(=O)Nc2ccccc2-c2ccccc2)CC1)Cc1ccc(O)c(Cl)c1 [Example 44, Biphenyl-2-yl-carbamic acid 1-{9-[(3-chloro-4-hydroxy-benzyl)-methyl-amino]-nonyl}-piperidin-4-yl ester]	0.212
CN(CCCCCCCCCN1CCC(OC(=O)Nc2ccccc2-c2ccccc2)CC1)Cc1ccc(O)c(F)c1 [Example 45, Biphenyl-2-yl-carbamic acid 1-{9-[(3-fluoro-4-hydroxy-benzyl)-methyl-amino]-nonyl}-piperidin-4-yl ester]	0.212

Reference: patent US20100016366A1, “Novel Compounds Active as Muscarinic Receptor Antagonists” (priority 2008, published 2010)
